Patent US20050256003A1, “Novel herbicides” (priority 2002, published 2005)

What was measured:
[1] = test system: monocotyledonous and dicotyledonous test plants; assay: Post-emergence herbicidal action; assay type: in vivo; parameters: key: 10=total damage; 0=no action; Ratings of from 10 to 7 (especially from 10 to 8) indicate good to very good herbicidal action; conditions: 250 g a.i./ha, about 18 days, rating 0-10
Description: Post-Emergence Herbicidal Action
In a greenhouse, monocotyledonous and dicotyledonous test plants are grown in standard soil in plastic pots and at the 4- to 6-leaf stage are sprayed with an aqueous suspension of the test compounds of formula I prepared from a 25% wettable powder (Example F3, b) according to WO 97/34485) or with an emulsion of the test compounds of formula I prepared from a 25% emulsifiable concentrate (Example F1, c) according to WO 97/34485), in a concentration corresponding to 125 g or 250 g of active ingredient/ha (500 litres of water/ha). The test plants are then grown on in a greenhouse under optimum conditions. After a test duration of about 18 days, the test is evaluated in accordance with a scale of nine ratings (10=total damage, 0=no action). Ratings of from 10 to 7 (especially from 10 to 8) indicate good to very good herbicidal action.

[2] = test system: monocotyledonous and dicotyledonous test plants; assay: Herbicidal action prior to emergence of the plants (pre-emergence action); assay type: in vivo; parameters: key: 10=total damage; 0=no action; Ratings of from 10 to 7 (especially from 10 to 8) indicate good to very good herbicidal action; conditions: 250 g a.i./ha, pre-emergence spray, evaluated after 3 weeks, scale 10=total damage, 0=no action
Description: Herbicidal Action Prior to Emergence of the Plants (Pre-Emergence Action)
Monocotyledonous and dicotyledonous test plants are sown in standard soil in plastic pots Immediately after sowing, the test compounds, in the form of an aqueous suspension (prepared from a 25% wettable powder (Example F3, b) according to WO 97/34485) or in the form of an emulsion (prepared from a 25% emulsifiable concentrate (Example F1, c)), are applied by spraying in a concentration corresponding to 125 g or 250 g of active ingredient/ha (500 litres of water/ha). The test plants are then grown in a greenhouse under optimum conditions. After a test duration of 3 weeks, the test is evaluated in accordance with a scale of nine ratings (10=total damage, 0=no action). Ratings of from 10 to 7 (especially from 10 to 8) indicate good to very good herbicidal action.

Row | SMILES | Post-emergence action, Amaranthus [1] | Post-emergence action, Chenopodium [1] | Post-emergence action, Echinochloa [1] | Post-emergence action, Euphorbia [1] | Post-emergence action, Ipomea [1] | Post-emergence action, Sinapis [1] | Post-emergence action, Stellaria [1] | Post-emergence action, Xanthium [1] | Pre-emergence action: Abutilon (rating) [2] | Pre-emergence action: Amaranthus (rating) [2] | Pre-emergence action: Chenopodium (rating) [2] | Pre-emergence action: Cyperus (rating) [2] | Pre-emergence action: Echinochloa (rating) [2] | Pre-emergence action: Panicum (rating) [2] | Pre-emergence action: Scirpus (rating) [2] | Pre-emergence action: Sida (rating) [2]
1 | Cc1nn(Cc2nc(C(F)(F)F)ccc2C(=O)C2=C(O)CCCC2=O)c(=O)s1 [Compound A1.079] | 9 | 9 | 7 | 8 | 8 | 9 | 9 | 7 | 10 | 4 | 8 | 8 | 5 | 9 | 10 | 10
2 | Cc1nn(Cc2nc(C(F)(F)F)ccc2C(=O)c2cnn(C)c2O)c(=O)o1 [Compound B1.008] | 9 | 10 | 9 | 8 | 9 | 7 | 8 |  | 10 | 10 | 10 | 9 | 9 | 10 | 10 | 9
3 | CC(C)N1CC(=O)N(Cc2nc(C(F)(F)F)ccc2C(=O)c2cnn(C)c2O)C1=O [Compound B1.170] | 9 | 9 | 9 | 7 | 0 | 9 | 9 | 6 | 9 | 9 | 10 | 8 | 9 | 9 | 9 | 9
4 | Cc1nn(CCOCc2nc(C(F)(F)F)ccc2C(=O)C2=C(O)C3CCC(C3)C2=O)c(=O)o1 (stereo not shown) [Compound A6.100] | 9 | 10 | 7 | 7 | 9 | 8 | 9 | 7 | 10 | 10 | 10 | 6 | 10 | 10 | 10 | 10
5 | Cn1ncn(Cc2nc(C(F)(F)F)ccc2C(=O)C2=C(O)C(C)(C)C(=O)C(C)(C)C2=O)c1=O [Compound A8.080] | 9 | 10 | 9 | 9 | 10 | 10 | 10 | 8 | 10 | 0 | 10 | 0 | 10 | 9 | 8 | 9
6 | Cc1nn(Cc2nc(C(F)(F)F)ccc2C(=O)C2=C(O)C3CCC(C3)C2=O)c(=O)s1 (stereo not shown) [Compound A6.079] |  |  |  |  |  |  |  |  | 10 | 7 | 10 | 6 | 7 | 9 | 9 | 6
7 | CSC(C)n1c(C)cc(=O)n1Cc1nc(C(F)(F)F)ccc1C(=O)C1=C(O)CCCC1=O (racemic) [Compound A1.055] |  |  |  |  |  |  |  |  | 10 | 0 | 10 | 10 | 10 | 9 | 9 | 10
8 | O=C1CCCC(O)=C1C(=O)c1ccc(C(F)(F)F)nc1Cn1sccc1=O [Compound A1.109] | 9 | 10 | 8 | 10 | 9 | 3 | 5 | 9 |  |  |  |  |  |  |  | 
9 | CN1CCN(Cc2nc(C(F)(F)F)ccc2C(=O)C2=C(O)CCCC2=O)C1=S [Compound A1.202] | 9 | 8 | 8 | 9 | 9 | 8 | 7 | 9 |  |  |  |  |  |  |  | 
10 | CSC(=O)n1c(C)cc(=O)n1Cc1nc(C(F)(F)F)ccc1C(=O)C1=C(O)C(C)(C)C(=O)C(C)(C)C1=O [Compound A8.062] | 9 | 10 | 9 | 9 | 8 | 9 | 5 | 0 |  |  |  |  |  |  |  | 
11 | COc1nn(Cc2nc(C(F)(F)F)ccc2C(=O)C2=C(O)CCCC2=O)c(=O)n1C [Compound A1.019] | 9 | 9 | 8 | 9 | 9 | 8 | 8 | 9 |  |  |  |  |  |  |  | 
12 | COc1nn(Cc2nc(C(F)(F)F)ccc2C(=O)c2cnn(C)c2O)c(=O)n1C [Compound B1.004] | 8 | 9 | 8 | 9 | 8 | 10 | 8 | 9 |  |  |  |  |  |  |  | 
13 | CCOc1nn(Cc2nc(C(F)(F)F)ccc2C(=O)c2cnn(C)c2O)c(=O)n1CC [Compound B1.050] | 9 | 9 | 4 | 9 | 7 | 9 | 7 | 8 |  |  |  |  |  |  |  | 
14 | CC(C)c1cn(-c2ccccc2)c(=O)n1Cc1nc(C(F)(F)F)ccc1C(=O)c1cnn(C)c1O [Compound B1.158] | 7 | 8 | 4 | 7 | 8 | 7 | 7 | 5 |  |  |  |  |  |  |  | 
